We go through nine sequences from patent publication US10201590B2, “Treatment of ocular disorders with anti-connexin proteins and mimetics” (CoDa Therapeutics, Inc., priority 2005, dated 2019).

“Also recorded” adds a separate entry of the source.

The target of one assay is T1, connexin hemichannels (Rattus norvegicus, UniProt P08050).
T1 construct: leads to the expression of connexin hemichannels; from tissue; host or cells: rat (Wistar p7) spinal cord, 500 micron slices in culture
The assay can be described thus: Blockage of dye (Lucifer Yellow) uptake by cells in spinal cord slices. It is filed as cell-based. Conditions: 500 micromolar peptide, slices incubated four hours, then Lucifer Yellow 30 minutes. How it is done: Two functional tests were carried out using peptides. These functional test were (i) blockage of dye (Lucifer Yellow) uptake by cells in spinal cord slices, and (ii) prevention of oedema in spinal cord segments (using connexin 43 specific antisense as a positive control). All peptides used were synthesised by Sigma-Genosys (Australia).
Lucifer Yellow is a small water soluble, fixable, dye able to pass from cell to cell via gap junction channels, but not across the cell membrane. The addition of Lucifer Yellow to the extracellular medium makes it is possible to check for the presence of open gap junction hemichannels. The dye will appear in the cytoplasm of cells which are expressing open channels.
Wistar p7 rats were anesthetized with carbon dioxide and immediately decapitated. The spinal cord was excised and transferred to cold Hank's balanced salt solution (HBSS) at pH 7.4. Excess branch nerves and ligaments were removed and the cord transferred to a manual tissue chopper and a series of 500 micron thick slices cut. The damage caused by the slicing induces connexin 43 upregulation through the entire slice (exacerbated by the gap junction mediated bystander effect), and leads to the expression of connexin hemichannels. Slices were placed onto 3 cm diameter Millipore inserts in 24 well plates and cultured in the presence of mimetic peptides in the media. The final concentration for all 9 peptides tested was 500 micromolar. Controls were; no peptide added, or with 1% ethanol or 1% DMSO added as some peptides were re-dissolved in these compounds (peptides were received lyophilised). Some slices were also treated at this time with connexin 43 specific antisense oligodeoxynucleotides in 30% Pluronic F-127 gel or with gel only, as control experiments.
Slices were incubated for four hours at 37 degrees C., and then 2.5 mg per ml Lucifer Yellow was added to each well for 30 minutes (in the dark). The tissues were then rinsed twice in PBS, with three further 10 minute washes, and the slices fixed with 4% paraformaldehyde. They were then viewed using a Leica TCS4D laser scanning confocal microscope to assess dye uptake into cells, or not.

Another assay has as its system spinal cord segments. The assay can be described thus: Prevention of oedema (swelling) in cultured spinal cord segments. In kind it is cell-based, rat. Conditions: for % swelling of cord segments: 500 micromolar peptide, 24 hours, control segments 21-23%. The method, then: FIGS. 1A and 1B show rat spinal cord segments 24 hours after placing into organotypic culture. In the control cord (FIG. 1A) significant swelling is observed at the cut ends (dotted lines mark the original cuts).
In both cases, the oedema can be blocked using antisense oligodexoynucleotides (ODNs) which prevent translation of the gap junction protein Connexin 43 (FIG. 1B).
The system described in Example 1 was used to examine the effects of the peptides VDCFLSRPTEKT (SEQ ID NO:35) and SRPTEKTIFII (SEQ ID NO:36) on cultured spinal cord segments to test their ability to block swelling.
The peptide QQPGCENVCYDK (SEQ ID NO:39) was used a negative control because it allowed dye uptake in the slice cultures described above, and was thus believed to not be able to block oedema in the segments. DMSO was again used as an additional control.
5 mm long spinal cord segments were placed in separate wells of a 24 well plate in HBSS. The segments were held to the bottom of the well using a small drop of Superglue. The HBSS was removed and 500 micromolar peptide (final concentration) added to media (no peptide for media alone or DMSO controls). The plates were incubated for 24 hours, the media removed and the tissue fixed with Bouin's fixative for 24 hours. Analysis involved photographing cord segments from above, with Image J used to calculate the total area of the cord segment compared with the area of swelling at the cut ends of the segments. Swelling (oedema) was calculated as (cultured area−original area divided by original area) to give % swelling. Single factor Analysis of Variance was used to determine statistical significance, with cut-off level for significance at p=0.05.
In this case a dose response was determined with final concentration of peptides used at 5, 10, 50 250 and 500 micromolar.

The subject of assay [1] is glial fibrillary acidic protein (GFAP) expression. The assay can be described thus: Immunohistochemical analysis of GFAP (astrocytosis) in spinal cord segments. It is filed as cell-based, rat. The conditions noted are these: for Area of GFAP label: 24 hours, control 2450. The method, then:
Table 7: Areas of GFAP label in images taken in spinal cord 24 hours after slicing. Control cords have high levels of GFAP indicating an inflammatory response and greater bystander effect than the treated segments.

A further assay has as its system connexin 43 hemichannels. The assay can be described thus: Perinatal sheep model of cerebral ischaemia, i.c.v. infusion of mimetic peptide. It is filed as in vivo. The method, then:
The infusion in these animals was continued until 72 h after ischaemia. […] Seizures resolved by approximately 48 h.
Dosages of about 5 μmol/kg brain, 50 μmol/kg and 250 μmol/kg brain weight are also possible. For intravenous (systemic delivery) the effect of log-order increases in plasma concentrations can be used to determine an appropriate dose, starting with loading doses to achieve 0.5 μmol/L (mean fetal blood volume is approximately 350 ml in our perinetal sheep at this age), then 5, 10, 50, 250, 500 and 5000 μM.
A Romney-Suffolk cross fetal sheep was instrumented between 117 to 124 days of gestation (0.85 term) under general anaesthesia as described elsewhere in detail (Gerrits et al, Pediatr Res 57(3):342-6, (2005); Guan et al., Neuroscience 95(3):831-839, (1999); Guan et al., J Cereb Blood Flow Metab 21(5):493-502, (2001); Gunn et al., J Clin Invest 99(2):248-256, (1997), Gunn et al., Pediatrics 102(5):1098-1106, (1998), Gunn et al., Pediatr Res 46(3):274-280, (1999); Roelfsema et al., J Cereb Blood Flow Metab 24(8):877-886, (2004)). Instrumentation included brachial artery and vein catheters, EKG electrodes, an inflatable occluder around a fetal carotid artery (Gunn et al., 1997; Roelfsema et al., 2004), parietal EEG electrodes 5 and 15 mm anterior, and 10 mm lateral to bregma, a pair of electrodes placed lateral to these to measure cortical impedance (a measure of cytotoxic oedema (Gunn et al., 1997) and a 17-mm-long left i.c.v. cannula 4 mm anterior and 6 mm lateral to bregma. The instrumentation was exteriorised to the maternal flank, uterine and abdominal walls closed, and fetal vascular catheters heparinised (20 IU/ml). The maternal wound was infiltrated with a long acting local anaesthetic bupivacaine (100 mg/20 ml).
After 5 days recovery, fetal cerebral hypoperfusion was induced by a 30 minute period of bilateral carotid artery occlusion (Gunn et al., 1997; Roelfsema et al., 2004; Tan et al., Ann Neurol 32(5):677-682, (1992); Tan et al., Pediatr Res 39(5):791-797, (1996)). […]

The mark [2] stands for this setting: near-term fetal sheep, i.c.v. infusion from 90 min after 30 min ischaemia until 72 h.

T1 sequence (P08050 2-382): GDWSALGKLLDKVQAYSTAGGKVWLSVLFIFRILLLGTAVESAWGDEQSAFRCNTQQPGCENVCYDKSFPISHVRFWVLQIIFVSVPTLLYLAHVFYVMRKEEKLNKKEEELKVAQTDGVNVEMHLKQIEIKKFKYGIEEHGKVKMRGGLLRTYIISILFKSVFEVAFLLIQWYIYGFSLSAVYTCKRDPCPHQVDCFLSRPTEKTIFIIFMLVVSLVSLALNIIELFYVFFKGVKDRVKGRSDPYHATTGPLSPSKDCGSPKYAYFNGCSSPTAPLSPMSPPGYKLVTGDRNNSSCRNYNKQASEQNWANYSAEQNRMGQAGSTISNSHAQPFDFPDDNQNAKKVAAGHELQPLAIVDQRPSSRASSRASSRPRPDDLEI

On to “FEVAFLLIQWI [connexin 43 mimetic peptide, M3 & E2]”, for which, in the assay with connexin hemichannels, the “dye (Lucifer Yellow) uptake / block of hemichannels” value (“dye (Lucifer Yellow) uptake / block” for short) was “comparable with control slices”.
Take “LGTAVESAWGDEQ [connexin 43 mimetic peptide, M1 & E1]”: the “dye (Lucifer Yellow) uptake / block” value with connexin hemichannels is given as “comparable with control slices”.
Take “LLIQWYIGFSL [connexin 43 mimetic peptide, E2]”: the “dye (Lucifer Yellow) uptake / block” value with connexin hemichannels is “comparable with control slices”.
In the case of “QQPGCENVCYDK [connexin 43 mimetic peptide, E1; used as negative control]”, the “% swelling of cord segments” value in the assay on spinal cord segments was 23%. In addition, in the assay with connexin hemichannels, the “dye (Lucifer Yellow) uptake / block” value is “comparable with control slices; also recorded: did not block hemichannels”.
As for “QSAFRCNTQQPG [connexin 43 mimetic peptide, E1]”, the “dye (Lucifer Yellow) uptake / block” value in the assay with connexin hemichannels is listed as “comparable with control slices”.
With “SLSAVYTCKRDPCPHQ [connexin 43 mimetic peptide, E2]”, the “dye (Lucifer Yellow) uptake / block” value with connexin hemichannels is “comparable with control slices”.
Consider “SRPTEKTIFII [connexin 43 mimetic peptide, E2 & M4]”, for which, in the assay with spinal cord segments (50 micromolar, repeat experiments), the “blocking of oedema at middle range concentration” value is given as “somewhat less effective”. In the assay on spinal cord segments, the “% swelling of cord segments” value turned out to be 17%. The “most effective concentration for blocking of oedema (least oedema)” value in the assay with spinal cord segments (dose response 5, 10, 50 250 and 500 micromolar, vs media alone p=0.001) was 5 µM. For the same sequence, the entries for the “dye (Lucifer Yellow) uptake / block” value in the assay with connexin hemichannels and in the assay with connexin hemichannels (listed as SEQ ID NO: 36) were “block hemichannels” and “capable of preventing and/or blocking and/or closing the opening of the hemichannels”, respectively. In addition, the “Area of GFAP label” value is 300 square units in assay [1] (5 micromolar), 950 square units in assay [1] (50 micromolar), 1000 square units in assay [1] (250 micromolar) and 750 square units in assay [1] (500 micromolar). The “astrocytosis (GFAP expression)” value in assay [1] (24 hours in culture) was “reduced astrocytosis”. The “most effective concentration at preventing the inflammatory response (GFAP)” value in assay [1] (24 hours in culture) is 5 µM. The “effect in perinatal sheep experiment” value in the assay on connexin 43 hemichannels (5 μmol/kg brain weight in 1 ml artificial CSF i.c.v. over one hour, then 1 ml per day for 72 hours) is reported as “significant effect”. Further, the “cortical impedance (cell swelling, cytotoxic oedema)” value in the assay with connexin 43 hemichannels (setting [2]) is “markedly delayed and attenuated rise in cerebral impedance”. In addition, the “seizures after cerebral ischaemia” value in the assay on connexin 43 hemichannels (setting [2]) is recorded as “changed seizures from continuous to a later onset of discrete, separate seizure events”.
With “VCYDKSFPISHVR [connexin 43 mimetic peptide, E1]”, in the assay with connexin hemichannels, the “dye (Lucifer Yellow) uptake / block” value is “comparable with control slices”.
As to “VDCFLSRPTEKT [connexin 43 mimetic peptide, E2]”, the “% swelling of cord segments” value in the assay with spinal cord segments is reported as 15%. Moreover, the “dye (Lucifer Yellow) uptake / block” value is recorded as “block hemichannels” on connexin hemichannels and “capable of preventing and/or blocking and/or closing the opening of the hemichannels” at connexin hemichannels (listed as SEQ ID NO: 35).
